In the assay the target is T1, PDE4B2 (Homo sapiens, UniProt Q07343).
T1 construct: made in house; host or cells: SF21 insect cells (baculovirus prepared in SF9 cells, pCR-Bac vector)
Put plainly: Inhibition of PDE4 activity, [3H]cAMP SPA enzyme assay with recombinant PDE4B2. To be noted: recombinant PDE4B2 (GB no. M97515) expressed in SF21 insect cells; 0.5 μM cAMP; 15 min at 37° C.; read-out: PDE4 Inhibition [measured as −logIC50 (mol/l)] (converted). The format is biochemical. As for the experimental part: Method for Measuring Inhibition of PDE4 Activities
The PDE4B2 (GB no. M97515) was a gift of Prof. M. Conti (Stanford University, USA). It was amplified from the original plasmid (pCMV5) via PCR with primers Rb9 (5′-[…]-3′) and Rb10 (5′-[…]-3′) and cloned into the pCR-Bac vector (Invitrogen, Groningen, NL).
The recombinant baculovirus was prepared by means of homologous recombination in SF9 insect cells. The expression plasmids were co-transfected with Bac-N-Blue (Invitrogen, Groningen, NL) or BaculoGold DNA (Pharmingen, Hamburg) using a standard protocol (Pharmingen, Hamburg). Wt virus-free recombinant virus supernatants were selected using plaque assay methods. After that, high-titre virus supernatants were prepared by amplifying 3 times. PDE4B2 was expressed in SF21 cells by infecting 2×10^6 cells/ml with an MOI (multiplicity of infection) between 1 and 10 in serum-free SF900 medium (Life Technologies, Paisley, UK). The cells were cultured at 28° C. for 48-72 hours, after which they were pelleted for 5-10 min at 1000 g and 4° C.
The SF21 insect cells were resuspended, at a concentration of approx. 10^7 cells/ml, in ice-cold (4° C.) homogenization buffer (20 mM Tris, pH 8.2, containing the following additions: 140 mM NaCl, 3.8 mM KCl, 1 mM EGTA, 1 mM MgCl2, 10 mM p-mercaptoethanol, 2 mM benzamidine, 0.4 mM Pefablock, 10 μM leupeptin, 10 μM pepstatin A, 5 μM trypsin inhibitor) and disrupted by ultrasonication. The homogenate was then centrifuged for 10 min at 1000×g and the supernatant was stored at 80° C. until subsequent use (see below). The protein content was determined by the Bradford method (BioRad, Munich) using BSA as the standard.
PDE4B2 activity was inhibited by the said compounds in a modified SPA (scintillation proximity assay) test, supplied by Amersham Biosciences (see procedural instructions “phosphodiesterase [3H]cAMP SPA enzyme assay, code TRKQ 7090”), carried out in 96-well microtitre plates (MTP's). The test volume is 100 μl and contains 20 mM Tris buffer (pH 7.4), 0.1 mg of BSA (bovine serum albumin)/ml, 5 mM Mg^2+, 0.5 μM cAMP (including about 50,000 cpm of [3H]cAMP), 1 μl of the respective substance dilution in DMSO and sufficient recombinant PDE (1000×g supernatant, see above) to ensure that 10-20% of the cAMP is converted under the said experimental conditions. […] After a preincubation of 5 min at 37° C., the reaction is started by adding the substrate (cAMP) and the assays are incubated for a further 15 min; after that, they are stopped by adding SPA beads (50 μl). In accordance with the manufacturer's instructions, the SPA beads had previously been resuspended in water, but were then diluted 1:3 (v/v) in water; the diluted solution also contains 3 mM IBMX to ensure a complete PDE activity stop. After the beads have been sedimented (>30 min), the MTP's are analyzed in commercially available […] detection devices. The corresponding IC50 values of the compounds for the inhibition of PDE activities are determined from the concentration-effect curves by means of non-linear regression.
The inhibitory values determined for the compounds according to the invention follow from the following Table 1, in which the numbers of the compounds correspond to the numbers of the examples.

Consider six compounds from patent US7838521B2, “3-oxa-10-aza-phenanthrenes” (NYCOMED GmbH, priority 2004, dated 2010).

T1 sequence (Q07343 1-564 isoform Q07343-2): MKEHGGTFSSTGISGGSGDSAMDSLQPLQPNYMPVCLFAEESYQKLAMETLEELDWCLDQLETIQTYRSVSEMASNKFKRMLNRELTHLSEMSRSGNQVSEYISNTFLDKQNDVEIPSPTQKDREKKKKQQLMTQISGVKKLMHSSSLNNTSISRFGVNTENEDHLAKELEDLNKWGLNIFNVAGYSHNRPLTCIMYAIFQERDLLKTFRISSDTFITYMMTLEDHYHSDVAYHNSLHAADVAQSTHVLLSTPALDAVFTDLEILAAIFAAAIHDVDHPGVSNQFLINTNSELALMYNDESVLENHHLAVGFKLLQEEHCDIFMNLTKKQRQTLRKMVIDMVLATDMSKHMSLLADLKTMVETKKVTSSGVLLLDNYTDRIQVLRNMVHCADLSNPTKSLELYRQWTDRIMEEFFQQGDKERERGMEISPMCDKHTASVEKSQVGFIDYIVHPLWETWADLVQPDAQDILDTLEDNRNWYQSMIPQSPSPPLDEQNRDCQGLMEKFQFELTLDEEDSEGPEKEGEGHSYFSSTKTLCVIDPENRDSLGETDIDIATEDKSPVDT

With `CCOc1cc2c(cc1OC)C(c1ccc(C(=O)N(C(C)C)C(C)C)cc1)=N[C@@H]1CCOC[C@H]21` [Compound 1, 4-((4aR,10aR)-6-Ethoxy-7-methoxy-1,4,4a,10a-tetrahydro-2H-3-oxa-10-aza-phenanthren-9-yl)-N,N-diisopropyl-benzamide], the IC50 was 2.75 nM. The figure for `CCOc1cc2c(cc1OC)C(c1ccc(C(=O)OC)cc1)=N[C@@H]1CCOC[C@H]21` [Compound 2, 4-((4aR,10aR)-6-Ethoxy-7-methoxy-1,4,4a,10a-tetrahydro-2H-3-oxa-10-aza-phenanthren-9-yl)-benzoic acid methyl ester] is 20 nM; for `CCOc1cc2c(cc1OC)C(c1ccc(C(=O)O)cc1)=N[C@@H]1CCOC[C@H]21` [Compound 3, 4-((4aR,10aR)-6-Ethoxy-7-methoxy-1,4,4a,10a-tetrahydro-2H-3-oxa-10-aza-phenanthren-9-yl)-benzoic acid] it is 33.9 nM; for `CCOc1cc2c(cc1OC)C(c1ccc(C(=O)N3CCOCC3)cc1)=N[C@@H]1CCOC[C@H]21` [Compound 4, 1-[4((4aR,10aR)-6-Ethoxy-7-methoxy-1,4,4a,10a-tetrahydro-2H-3oxa-10-aza-phenanthren-9-yl)-phenyl]-1-morpholin-4-yl-methanone] it is 39.8 nM. The figure for `CCOc1cc2c(cc1OC)C(c1ccc(C(=O)N(C)C)cc1)=N[C@@H]1CCOC[C@H]21` [Compound 5, 1-[4-((4aR,10aR)-6-Ethoxy-7-methoxy-1,4,4a,10a-tetrahydro-2H-3-oxa-10-aza-phenanthren-9-yl)]-N,N-dimethyl-benzamide] is 57.5 nM; for `CCOc1cc2c(cc1OC)C(c1ccc(C(=O)N3CCN(C)CC3)cc1)=N[C@@H]1CCOC[C@H]21` [Compound 6, 1-[4-((4aR,10aR)-6-Ethoxy-7-methoxy-1,4,4a,10a-tetrahydro-2H-3oxa-10-aza-phenanthren-9-yl)-phenyl-]1-(4-methyl-piperazin-1-yl)-methanone] it is 20.4 nM.
